Experimental data as given in PubChem BioAssay (NCI).
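How tested: cells in 96-well plates exposed to compound for 48 hours at five concentrations. TGI: concentration producing complete growth inhibition.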

The compounds below were run on UACC-257 melanoma (assay: NCI tumour cell line growth inhibition, 48 h).

First: O=C(N/N=C/c1cccc(O)c1O)N/N=C/c1cccc(O)c1O
Second: COc1ccc(/C=C(/C(=O)O)c2cc(OC)c(OC)c(OC)c2)cc1
The TGI of the first is lower: 62.9 µM for the first, > 100 µM for the second.

`CC(=O)OCCc1cccnc1/C=N/O` and `CCOC(=O)CCCO` cannot be ordered by TGI: > 100 µM for the first, > 100 µM for the second.

With `O=C1Oc2cc3c(c4cccc1c24)OCN(c1ccc(Cl)cc1)C3` the TGI was > 100 µM.

The compounds below were run on M14 melanoma (assay: NCI tumour cell line growth inhibition, 48 h).

Going from `c1ccc(-c2nnc(-c3nn(-c4ccccc4)c4nc5ccccc5nc34)o2)cc1` to `Cc1cc(C)nc(NS(=O)(=O)c2ccc(NC(=O)c3cccc4c(=O)c5ccccc5[nH]c34)cc2)n1`, the TGI falls from > 100 µM to 40.7 µM.

Going from `COc1cc2c(cc1OC)C1C=NC(C(=O)O)(C2)c2ccccc21` (stereo not drawn) to `COc1ccc(/C=C(/C(=O)O)c2cc(OC)c(OC)c(OC)c2)cc1`, the TGI falls from > 100 µM to 99.1 µM.

Compared with `O=C(N/N=C/c1cccc(O)c1O)N/N=C/c1cccc(O)c1O`, `O=C1Oc2cc3c(c4cccc1c24)OCN(c1ccc(Cl)cc1)C3` is higher in TGI: 34 µM for the first, > 57.8 µM for the second.

`CC(=O)OCCc1cccnc1/C=N/O` and `CCOC(=O)CCCO` cannot be ordered by TGI: > 100 µM for the first, > 100 µM for the second.

What follows are compounds tested on HCT-15 colon (assay: NCI tumour cell line growth inhibition, 48 h).

Going from `c1ccc(-c2nnc(-c3nn(-c4ccccc4)c4nc5ccccc5nc34)o2)cc1` to `Cc1cc(C)nc(NS(=O)(=O)c2ccc(NC(=O)c3cccc4c(=O)c5ccccc5[nH]c34)cc2)n1`, the TGI falls from > 100 µM to 46.3 µM.

`COc1cc2c(cc1OC)C1C=NC(C(=O)O)(C2)c2ccccc21` (stereo not drawn) and `O=C1Oc2cc3c(c4cccc1c24)OCN(c1ccc(Cl)cc1)C3` cannot be ordered by TGI: > 100 µM for the first, > 64.7 µM for the second.

`O=C(N/N=C/c1cccc(O)c1O)N/N=C/c1cccc(O)c1O` and `CC(=O)OCCc1cccnc1/C=N/O` cannot be ordered by TGI: > 100 µM for the first, > 100 µM for the second.

For `CCOC(=O)CCCO`, the TGI was > 100 µM.

Each compound was assayed on SF-295 CNS (assay: NCI tumour cell line growth inhibition, 48 h).

First: c1ccc(-c2nnc(-c3nn(-c4ccccc4)c4nc5ccccc5nc34)o2)cc1
Second: Cc1cc(C)nc(NS(=O)(=O)c2ccc(NC(=O)c3cccc4c(=O)c5ccccc5[nH]c34)cc2)n1
The TGI of the first is higher: > 100 µM for the first, 43.5 µM for the second.

`COc1cc2c(cc1OC)C1C=NC(C(=O)O)(C2)c2ccccc21` (stereo not drawn) and `O=C1Oc2cc3c(c4cccc1c24)OCN(c1ccc(Cl)cc1)C3` cannot be ordered by TGI: > 100 µM for the first, > 100 µM for the second.

First: O=C(N/N=C/c1cccc(O)c1O)N/N=C/c1cccc(O)c1O
Second: CC(=O)OCCc1cccnc1/C=N/O
The TGI of the first is lower: 46.2 µM for the first, > 100 µM for the second.

For `CCOC(=O)CCCO`, the TGI was > 100 µM.

These compounds were tested on CAKI-1 renal (assay: NCI tumour cell line growth inhibition, 48 h).

`c1ccc(-c2nnc(-c3nn(-c4ccccc4)c4nc5ccccc5nc34)o2)cc1` and `Cc1cc(C)nc(NS(=O)(=O)c2ccc(NC(=O)c3cccc4c(=O)c5ccccc5[nH]c34)cc2)n1` cannot be ordered by TGI: > 100 µM for the first, > 100 µM for the second.

`COc1cc2c(cc1OC)C1C=NC(C(=O)O)(C2)c2ccccc21` (stereo not drawn) and `COc1ccc(/C=C(/C(=O)O)c2cc(OC)c(OC)c(OC)c2)cc1` cannot be ordered by TGI: > 100 µM for the first, > 100 µM for the second.

`CC(=O)OCCc1cccnc1/C=N/O` and `O=C1Oc2cc3c(c4cccc1c24)OCN(c1ccc(Cl)cc1)C3` cannot be ordered by TGI: > 100 µM for the first, > 100 µM for the second.

Each compound was assayed on SK-MEL-5 melanoma (assay: NCI tumour cell line growth inhibition, 48 h).

`COc1cc2c(cc1OC)C1C=NC(C(=O)O)(C2)c2ccccc21` (stereo not drawn) and `COc1ccc(/C=C(/C(=O)O)c2cc(OC)c(OC)c(OC)c2)cc1` cannot be ordered by TGI: > 100 µM for the first, > 100 µM for the second.

Compared with `Cc1cc(C)nc(NS(=O)(=O)c2ccc(NC(=O)c3cccc4c(=O)c5ccccc5[nH]c34)cc2)n1`, `O=C1Oc2cc3c(c4cccc1c24)OCN(c1ccc(Cl)cc1)C3` is higher in TGI: 24 µM for the first, > 100 µM for the second.

`CC(=O)OCCc1cccnc1/C=N/O` and `CCOC(=O)CCCO` cannot be ordered by TGI: > 100 µM for the first, > 100 µM for the second.

Each compound was assayed on 786-0 renal (assay: NCI tumour cell line growth inhibition, 48 h).

First: c1ccc(-c2nnc(-c3nn(-c4ccccc4)c4nc5ccccc5nc34)o2)cc1
Second: Cc1cc(C)nc(NS(=O)(=O)c2ccc(NC(=O)c3cccc4c(=O)c5ccccc5[nH]c34)cc2)n1
The TGI of the first is higher: > 100 µM for the first, 36.8 µM for the second.

`COc1cc2c(cc1OC)C1C=NC(C(=O)O)(C2)c2ccccc21` (stereo not drawn) and `COc1ccc(/C=C(/C(=O)O)c2cc(OC)c(OC)c(OC)c2)cc1` cannot be ordered by TGI: > 100 µM for the first, > 100 µM for the second.

Compared with `O=C(N/N=C/c1cccc(O)c1O)N/N=C/c1cccc(O)c1O`, `O=C1Oc2cc3c(c4cccc1c24)OCN(c1ccc(Cl)cc1)C3` is lower in TGI: > 100 µM for the first, 34.5 µM for the second.

`CC(=O)OCCc1cccnc1/C=N/O` and `CCOC(=O)CCCO` cannot be ordered by TGI: > 100 µM for the first, > 100 µM for the second.

These compounds were tested on NCI-H226 lung (assay: NCI tumour cell line growth inhibition, 48 h).

Compared with `c1ccc(-c2nnc(-c3nn(-c4ccccc4)c4nc5ccccc5nc34)o2)cc1`, `Cc1cc(C)nc(NS(=O)(=O)c2ccc(NC(=O)c3cccc4c(=O)c5ccccc5[nH]c34)cc2)n1` is 2.8-fold lower in TGI: 99.5 µM for the first, 36 µM for the second.

`COc1cc2c(cc1OC)C1C=NC(C(=O)O)(C2)c2ccccc21` (stereo not drawn) and `COc1ccc(/C=C(/C(=O)O)c2cc(OC)c(OC)c(OC)c2)cc1` cannot be ordered by TGI: > 100 µM for the first, > 100 µM for the second.

Compared with `O=C(N/N=C/c1cccc(O)c1O)N/N=C/c1cccc(O)c1O`, `CC(=O)OCCc1cccnc1/C=N/O` is higher in TGI: 59.5 µM for the first, > 100 µM for the second.
